“And” between values parts separate entries of the source, which are not always exact repeats. Equal entries are not always repeated. Where two headings read alike, the source gives them in different places.
Legend:
retinal vesseles = settings: injected into retinal artery of rabbit; cited from earlier work
diabetic retinopathy = test: Clinical trial in patients having diabetic retinopathy, funduscopic observation; format: in vivo, human; design: key to Funduscopic observation: microaneurysms / Funduscopic observation: dot hemorrhage: +: observed; ±: slightly observed; -: not observed; settings: 300 to 900 mg daily orally; for Funduscopic observation: microaneurysms / Funduscopic observation: dot hemorrhage: + + at start
Procedure: Compound A was administered orally at dose of 300 to 900 mg daily to patients having diabetic retinopathy for a period of a month to about 2 years. Microaneurysms, dot hemorrhage, retina edema, hard exudate, arterialization and maculopathy in Fundus oculi, which were indications for retinopathy, were investigated using a funduscope.

[1] = Acute toxicity (LD50) in rats, oral; settings: rat, in vivo, administered orally
[2] = system: human neutrophil aggregation; test: Inhibition by Compound A of PAF-induced human neutrophil aggregation (Optical method); format: cell-based
Procedure: (§1) Blood was taken from median cubital vein or cephalic vein of normal men aged of 29 to 40, who had taken no anti-inflammatory drug at least for the last 10 days before testing, into a syringe containing 0.1 volume of 40 U/ml heparin aqueous solution (a product of Green Cross Corp., Japan).
10 ml of the blood obtained above was mixed with 3 ml of a 4.5% dextran aqueous solution, and the mixture was allowed to stand for 1 hour at room temperature. The supernatant was taken and centrifuged at 250 X g for 7 minutes. The precipitate was taken, and 3 ml of 0.2% sodium chloride aqueous solution was added thereto to lyse the red blood cells. The mixture was allowed to stand for 75 seconds and 7 ml of a 1.2% sodium chloride aqueous solution was added thereto. The mixture was centrifuged at 250 X g for 7 minutes to obtain the precipitate which contained mainly neutrophils. When the red blood cell was not sufficiently removed, the above procedure for lysis of red blood cell was repeated. The precipitate was washed with 10 ml of a phosphate buffer solution containing 0.5% glucose (hereinafter, PBSG), and the mixture was centrifuged at 250 X g for 7 minutes to take the precipitate. The above washing procedure was repeated twice, and the precipitate obtained was added to PBSG or PBSG containing 0.5% human serum albumin to obtain the neutrophil suspension. It was confirmed that the surviving ratio of nuetrophil in the resulting suspension was over 95% as determined by the trypan blue staining method. A blood cell counter (a product of Nihon Koden Co., Ltd) was used to count the number of neutrophils. The mixture was preserved at 4° C. before use. […]
5 μl of saline solution of Compound A prepared in 1-4) was added to 1 ml of neutrophil suspension and the mixture was incubated for 2 minutes under the conditions that the temperature in cell was 37° C. and the stirring rate was 1,000 r.p.m. […] The aggregation was determined optically using the Chrono-log aggregometer. As a control, saline was used instead of saline solution of Compound A and the aggregation was determined as described above.

[3] = system: human platelet aggregation; test: Inhibition by Compound A of PAF-induced human platelet aggregation; format: cell-based
Procedure: as §1
The blood obtained in (1) was centrifuged at 190 X g for 7 minutes. The supernatant was taken to obtain the platelets rich plasma (hereinafter, PRP). Platelet counter (a product of Toa Co., Ltd) was used to count the number of platelets.
(§2) Compound A was dissolved in a saline, and the solution obtained was used in the experiment.
(§3) As an aggregation inducing agent, an aqueous solution prepared by dissolving epinephrine or a platelet activating factor (hereinafter, PAF) in 25 mM Tris HCl-130 mM NaCl aqueous solution (pH 7.4) was used in the experiment.
(§4) 5 μl of saline solution of Compound A prepared in 1-4 was added to 1 ml of the whole blood, neutrophil suspension or PRP and an electrode was dipped thereinto. The mixture obtained was incubated for 2 minutes under the conditions that the temperature in cell was 37° C. and the stirring rate was 1000 r.p.m., and then 20 μl of aggregation inducing agent was added to the mixture. 4 minutes later, the variation in impedance (Δ.OMEGA.) was determined using Chrono-log aggregometer (540 type, a product of Chrono-log Co., Ltd). The intensity of the variation gave the aggregation activity. In determining the aggregation of neutrophils, 5 μg/ml of cytochalasin B was added to the incubated mixture, one minute prior to the addition of PAF solution. As a control, saline was used instead of saline solution of Compound A and the aggregation was determined as described above.

[4] = system: human whole blood aggregation; test: Inhibition by Compound A of human whole blood aggregation (Impedance method); format: cell-based
Procedure: as §1, §2, §3, §4

human neutrophils = test: Inhibition by Compound A of PAF-induced adhesion-aggregation of human neutrophils (Impedance method); format: cell-based; settings: Neutrophil, 10 μM Compound A, 0.02 μM, read-out: Inhibition ratio
Procedure: as §1
10 ml of the blood obtained above was mixed with 3 ml of a 4.5% dextran aqueous solution, and the mixture was allowed to stand for 1 hour at room temperature. The supernatant was taken and centrifuged at 250 X g for 7 minutes. The precipitate was taken, and 3 ml of 0.2% sodium chloride aqueous solution was added thereto to lyse the red blood cells. The mixture was allowed to stand for 75 seconds and 7 ml of a 1.2% sodium chloride aqueous solution was added thereto. […] It was confirmed that the surviving ratio of nuetrophil in the resulting suspension was over 95% as determined by the trypan blue staining method. […]
5 μl of saline solution of Compound A prepared in 1-4 was added to 1 ml of the whole blood, neutrophil suspension or PRP and an electrode was dipped thereinto. […] 4 minutes later, the variation in impedance (Δ.OMEGA.) was determined using Chrono-log aggregometer (540 type, a product of Chrono-log Co., Ltd). […] As a control, saline was used instead of saline solution of Compound A and the aggregation was determined as described above.

platelet aggregation = settings: as disclosed in U.S. Pat. No. 4,138,491; cited from earlier work
blood glucose level = settings: as disclosed in U.S. Pat. No. 4,138,491; cited from earlier work
[5] = patient B, left eye, 116 weeks after administration
[6] = patient B, right eye, 116 weeks after administration

CCCCCCCCCCCCCCCCOCC(COP(=O)([O-])OCC[N+](C)(C)C)OC(C)=O (stereo not drawn) [PAF]
state of retinal vessels (retinal vesseles): a sludge-like state is observed in retinal vesseles

c1ccc(C(CC2=NCCN2)c2ccccn2)cc1 (stereo not drawn) [Compound A, 2-(2-phenyl-2-(2-pyridyl))ethyl-2-imidazoline]
microaneurysms and dot hemorrhage (diabetic retinopathy; 3 patients): disappearance or reduction of microaneurysms and dot hemorrhage were observed | Funduscopic observation: microaneurysms (diabetic retinopathy; patient A, left eye, 58 weeks after administration): - | Funduscopic observation: microaneurysms (diabetic retinopathy; patient A, right eye, 58 weeks after administration): - | Funduscopic observation: dot hemorrhage (diabetic retinopathy; [5]): - | Funduscopic observation: microaneurysms (diabetic retinopathy; [5]): - | Funduscopic observation: dot hemorrhage (diabetic retinopathy; [6]): - | Funduscopic observation: microaneurysms (diabetic retinopathy; [6]): - | Funduscopic observation: dot hemorrhage (diabetic retinopathy; patient C, left eye, 109 weeks after administration): ± | Funduscopic observation: dot hemorrhage (diabetic retinopathy; patient C, right eye, 109 weeks after administration): ± | LD50 [1]: 867 mg/kg | inhibition at 5 µM ([2]; Homo sapiens, Neutrophil, 5 μM Compound A, PAF, 2 μM, optical method, read-out: inhibition ratio): 68% | inhibition at 10 µM ([2]; Homo sapiens, Neutrophil, 10 μM Compound A, PAF, 2 μM, optical method, read-out: inhibition ratio): 83% | PAF-induced human neutrophil aggregation ([2]; at low concentration): inhibited the PAF-induced human neutrophil aggregation at low concentration | inhibition at 10 µM ([3]; Homo sapiens, Platelet, 10 μM Compound A, PAF, 2 μM, read-out: Inhibition ratio): 0% | inhibition at 50 µM ([3]; Homo sapiens, Platelet, 50 μM Compound A, PAF, 2 μM, read-out: Inhibition ratio): 45% | inhibition at 100 µM ([3]; Homo sapiens, Platelet, 100 μM Compound A, PAF, 2 μM, read-out: Inhibition ratio): 82% | PAF-induced human platelet aggregation ([3]; low versus high concentration): did not inhibit PAF-induced human platelet aggregation at a low concentration but did at a high concentration | IC50 ([4]; Homo sapiens, in vitro, Epinephrine (2 μM), individual values of n = 3, read-out: IC50): 5.6 µM | IC50 ([4]; Homo sapiens, in vitro, Epinephrine (2 μM), n = 3, read-out: IC50, average ± s.d.): 5.2 ± 0.7 µM | IC50 ([4]; Homo sapiens, induced by PAF (0.02 μM), n=3, read-out: IC50, average): 2.8 µM | IC50 ([4]; Homo sapiens, induced by epinephrine (2 μM), n=3, read-out: IC50): ~5 µM | IC50 ([4]; in vitro, Epinephrine (2 μM), individual values of n = 3, read-out: IC50): 4.2 µM and 5.8 µM | IC50 ([4]; in vitro, PAF (0.02 μM), individual values of n = 3, read-out: IC50): 1.8 µM and 4.6 µM | inhibition at 10 µM (human neutrophils): 59% | platelet aggregation (platelet aggregation): inhibits platelet aggregation | blood glucose level (blood glucose level): reduces the blood glucose level

— US4746668A, “Method for treating retinopathy” (Daiichi Seiyaku Co., Ltd., priority 1986, dated 1988)
